The source of these data is patent publication US6440471B2, “Plant proanthocyanidin extracts” (JLB, Inc., priority 1999, dated 2002).

This test relates to adhesion of bacteria. Nature of the test: Anti-adhesion assay (not further specified). The test is classed as cell-based. The text has this:
Further, quercetin and myricetin, which both share the catechin or epicatechin-like nucleus with leucocyanins but have R^2=H or OH, have been tested in the anti-adhesion assay and show no activity. […] Further, as described previously herein, one of the anti-adhesion assays described herein compares the ability of a substance to inhibit binding relative to mannose inhibition of such adhesion, and it is therefore believed that a carbohydrate moiety is involved in conferring anti-adhesion activity.

Entries after “also recorded” stand apart in the source; their conditions may differ.

With myricetin-3-pyranoside, the anti-adhesion activity entry was “some anti-adhesion activity; also recorded: does have anti-adhesion activity”.

In the case of `O=c1c(O)c(-c2cc(O)c(O)c(O)c2)oc2cc(O)cc(O)c12` [myricetin], the anti-adhesion activity entry was “no activity”.

Turning to `O=c1c(O)c(-c2ccc(O)c(O)c2)oc2cc(O)cc(O)c12` [quercetin], the anti-adhesion activity result is “no activity”.
